Experimental data reported in ChEMBL document CHEMBL4602666, “Nostotrebin 6 Related Cyclopentenediones and δ-Lactones with Broad Activity Spectrum Isolated from the Cultivation Medium of the Cyanobacterium Nostoc sp. CBT1153” (J Nat Prod, 2020).
Converted amounts (≈) assume the structure as drawn. The source made the active and inactive calls. The rule behind the calls is not given here.

Assays:
Enterococcus faecium = experiment: Antibacterial activity against Enterococcus faecium BM4147-1 assessed as reduction cell viability after 16 to 20 hrs by CLSI based two-fold serial dilution method; type: functional
Rhodesain = Rhodesain (Trypanosoma brucei rhodesiense, UniProt Q95PM0); experiment: Inhibition of Trypanosoma brucei rhodesiense C-terminal full length rhodesain expressed in Pichia pastoris using Cbz-PheArg-AMC as substrate measured every 30 sec for 10 mins by fluorescence based assay
Rhodesain, sequence (Q95PM0 whole entry): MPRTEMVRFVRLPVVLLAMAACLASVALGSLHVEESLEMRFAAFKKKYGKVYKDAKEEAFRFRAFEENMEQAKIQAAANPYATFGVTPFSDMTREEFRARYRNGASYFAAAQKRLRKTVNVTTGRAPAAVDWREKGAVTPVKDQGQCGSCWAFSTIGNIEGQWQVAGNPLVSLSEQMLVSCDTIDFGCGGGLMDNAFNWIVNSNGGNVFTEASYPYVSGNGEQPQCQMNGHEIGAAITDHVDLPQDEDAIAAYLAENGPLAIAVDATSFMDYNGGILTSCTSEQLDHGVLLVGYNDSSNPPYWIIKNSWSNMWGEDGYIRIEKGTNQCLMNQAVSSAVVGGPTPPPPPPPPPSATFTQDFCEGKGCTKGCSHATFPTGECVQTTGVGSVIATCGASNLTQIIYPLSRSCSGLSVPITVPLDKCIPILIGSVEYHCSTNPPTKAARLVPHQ

HeLa = experiment: Cytotoxicity against human HeLa cells assessed as reduction in cell viability after 24 hrs by resazurin staining based fluorescence assay
Staphylococcus aureus = experiment: Antibacterial activity against Staphylococcus aureus ATCC 29213 assessed as reduction cell viability after 16 to 20 hrs by CLSI based two-fold serial dilution method; type: functional
Bacillus subtilis = experiment: Antibacterial activity against Bacillus subtilis 168 assessed as reduction cell viability after 16 to 20 hrs by CLSI based two-fold serial dilution method; type: functional
[1] = target: Rhodesain (Trypanosoma brucei rhodesiense) (UniProt Q95PM0); experiment: Inhibition of Trypanosoma brucei rhodesiense C-terminal full length rhodesain expressed in Pichia pastoris using Cbz-PheArg-AMC as substrate preincubated for 5 to 30 mins followed by substrate and measured every 30 sec for 10 mins by fluorescence based assay
Rhodesain (Trypanosoma brucei rhodesiense), sequence (Q95PM0 1-450): as the sequence (Q95PM0 whole entry) above

[2] = target: Rhodesain (Trypanosoma brucei rhodesiense) (UniProt Q95PM0); experiment: Inhibition of Trypanosoma brucei rhodesiense C-terminal full length rhodesain expressed in Pichia pastoris at 50 uM using Cbz-PheArg-AMC as substrate measured every 30 sec for 10 mins in presence of 4.75 mM DTT by fluorescence based assay
[3] = target: Rhodesain (Trypanosoma brucei rhodesiense) (UniProt Q95PM0); experiment: Inhibition of Trypanosoma brucei rhodesiense C-terminal full length rhodesain expressed in Pichia pastoris at 50 uM using Cbz-PheArg-AMC as substrate measured every 30 sec for 10 mins in presence of 0.005 to 0.025 % of Brij-35 by fluorescence based assay

## O=c1oc(-c2ccc(O)cc2)cc(Cc2ccc(O)cc2)c1Cc1ccc(O)cc1O
Enterococcus faecium
  MIC: 100 µM (≈ 41.6 µg/mL)
Rhodesain
  IC50: 63 µM
HeLa
  IC50: 84 µM
Staphylococcus aureus
  MIC: 50 µM (≈ 20.8 µg/mL)
Bacillus subtilis
  MIC: 50 µM (≈ 20.8 µg/mL)

## O=C1C(Cc2ccc(O)cc2)=C(Cc2ccc(O)cc2)C(=O)C1(c1ccc(O)cc1)C1(c2ccc(O)cc2)C(=O)C(Cc2ccc(O)cc2)=C(Cc2ccc(O)cc2)C1=O
[1]
  inhibition: Active
[2]
  inhibition: Active
Enterococcus faecium
  MIC: 13 µM (≈ 10.4 µg/mL)
Rhodesain
  IC50: 15 µM
HeLa
  IC50: 16 µM
Staphylococcus aureus
  MIC: 13 µM (≈ 10.4 µg/mL)
[3]
  inhibition: Active
Bacillus subtilis
  MIC: 13 µM (≈ 10.4 µg/mL)

## O=C1C(Cc2ccc(O)cc2)=C(Cc2ccc(O)cc2)C(=O)C1(c1ccc(O)cc1)c1cc(Cc2c(Cc3ccc(O)cc3)cc(-c3ccc(O)cc3)oc2=O)c(O)cc1O
Enterococcus faecium
  MIC: 13 µM (≈ 10.6 µg/mL)
Rhodesain
  IC50: 33 µM
HeLa
  IC50: 33 µM
Staphylococcus aureus
  MIC: 3 µM (≈ 2.44 µg/mL)
Bacillus subtilis
  MIC: 3 µM (≈ 2.44 µg/mL)
